This is an account of results in patent US7667052B2 (Eisai R&D Management Co., Ltd., priority 2003, dated 2010).

This experiment has as its system transcription from VEGF promoter. Nature of the experiment: VEGF transcription-suppressing activity, VEGF-PLAP reporter in U251/1-8 cell. The class given is cell-based. The conditions noted are these: Homo sapiens, U-251; U251/1-8 cell, PLAP activity, low oxygen 18 hours; read-out: IC50 values of VEGF transcription-suppressing activity (range given). The text has this: In order to prepare reporter system reflecting transcription from VEGF promoter, VEGF promoter sequence was cloned, and inserted in secretory alkali phosphatase (PLAP) vector to construct reporter vector.
In order to obtain the promoter region of human VEGF, VEGF genome was cloned from phage library. PCR primers having the sequences described in Sequence Numbers 1 and 2 were designed based on VEGF cDNA (GenBank accession number: X62568) and a fragment having about 340 bp was obtained by carrying out PCR. Human genome phage library (Human genomic library, Clontech Co.) was screened using this as a probe to obtain pUC18-VEGFA containing about 5.4 kb of VEGF 5′ flanking region. The pUC18-VEGFA was cleaved by KpnI/NheI, VEGF promoter region of about 2.3 kb obtained was inserted in the multi cloning site KpnI/NheI of secretory alkali phosphatase (PLAP) vector (Goto et al, Mol. Pharmacol., 49, 860-873, 1996), and thus, VEGF-PLAP vector was constructed.
The above-mentioned VEGF-PLAP vector was introduced in the U251 cell cultured in the DULBECCO-modified eagle medium (DMEM; manufactured by SIGMA Co., Ltd.) containing 10% fetal calf serum, and cultured in the presence of 1 mg/ml G418 (Merck Co.) to establish G418 resistant stable clone (U251/1-8 cell).
It was confirmed that U251/1-8 cell secreted PLAP under low oxygen (2% O2 incubator) in the same manner as in the report (Cell. Mol. Biol. Res. 40, 35-39, 1994) and was a reporter system reflecting the transcription from VEGF promoter. The screening of the compound suppressing VEGF production which was induced by low oxygen stimulation was carried out below using the clone.
In order to remove the influence of alkaline phosphates in serum, U251/1-8 cell was rinsed twice with the adequate amount of PBS (Phosphate buffered saline), diluted in the DMEM medium containing 10% of serum in which alkaline phosphates was inactivated by the treatment of 60° C. for 20 min., and dispensed in 96-well plates by 4×10^4 cells/180 μl.
After culturing at 37° C. overnight in a CO2 incubator (5% CO2), 20 μL of the above-mentioned incubation solution containing the test compound diluted with 3-fold succession was added, and then they were incubated in a low oxygen ([…]) incubator for 18 hours. With respect to the PLAP activity in the culture supernatants, 10 μl of the supernatants was added to 50 μl of 0.28 M Na2CO3—NaHCO3 buffer solution (pH 10.0, 8.0 mM MgSO4), and finally 50 μl of alkaline phosphatase substrate (LUMISTEIN, Genomescience Co.) was added. After reacting for one hour, the alkaline phosphatase activity of the PLAP was measured by detecting the chemical luminescence by a micro plate reader (Perkin-Elmer Co.).
The PLAP activity under usual oxygen was set as 0%, the PLAP activity of cell which was treated under low oxygen was set as 100%, and the concentration suppressing the PLAP activity by 50% was set as the IC50 value of PLAP.

By IC50 is commonly meant the concentration that inhibits the measured activity by half. Take `CCC(O)C(C)C1OC1CC(C)/C=C/C=C(\C)C1OC(=O)CC(O)CCC(C)(O)C(OC(=O)NC(=O)CCl)/C=C/C1C` (centres unmarked) [B69, (8E,12E,14E)-7-(N-Chloroacetyl)carbamoyloxy-3,6,21-trihydroxy-6,10,12,16,20-pentamethyl-18,19-epoxytricosa-8,12,14-trien-11-olide]: the IC50 fell in the range of 0.5 to 100 nM.
On to `CCC(O)C(C)C1OC1CC(C)/C=C/C=C(\C)C1OC(=O)CC(O)CCC(C)(O)C(OC(=O)N2CCNCC2)/C=C/C1C` (centres unmarked) [B52, (8E,12E,14E)-3,6,21-Trihydroxy-6,10,12,16,20-pentamethyl-7-((piperazin-1-yl)carbonyl)oxy-18,19-epoxytricosa-8,12,14-trien-11-olide], for which the IC50 lay within 0.5 to 100 nM.
Regarding `CCC(O)C(C)C1OC1CC(C)/C=C/C=C(\C)C1OC(=O)CC(O)CCC(C)(O)C(OC(=O)N2CCCNCC2)/C=C/C1C` (centres unmarked) [B61, (8E,12E,14E)-3,6,21-Trihydroxy-6,10,12,16,20-pentamethyl-7-((homopiperazin-1-yl)carbonyl)oxy-18,19-epoxytricosa-8,12,14-trien-11-olide], the IC50 lay in the range of 0.5 to 100 nM.
Under `CCC(OC(=O)c1ccccc1)C(C)C1OC1CC(C)/C=C/C=C(\C)C1OC(=O)CC(O)CCC(C)(O)C(OC(C)=O)/C=C/C1C` (centres unmarked) [B30-3, (8E,12E,14E)-7-acetoxy-21-benzoloxy-3,6-dihydroxy-6,10,12,16,20-pentamethyl-18,19-epoxytricosa-8,12,14-trien-11-olide] stands 0.5 to 100 nM; under `CCC(O)C(C)C1OC1CC(C)/C=C/C=C(\C)C1OC(=O)CC(O)CCC(C)(O)C(OC(=O)c2ccccc2)/C=C/C1C` (centres unmarked) [B41, (8E,12E,14E)-7-Benzoyloxy-3,6,21-trihydroxy-6,10,12,16,20-pentamethyl-18,19-epoxytricosa-8,12,14-trien-11-olide], 0.5 to 100 nM.
Turning to `CCC(O)C(C)C1OC1CC(C)/C=C/C=C(\C)C1OC(=O)CC(O)CCC(C)(O)C(OC(=O)NCCN2CCCC2)/C=C/C1C` (centres unmarked) [B64, (8E,12E,14E)-3,6,21-Trihydroxy-6,10,12,16,20-pentamethyl-7-N-(2-(pyrrolidin-1-yl)ethyl)carbamoyloxy-18,19-epoxytricosa-8,12,14-trien-11-olide], the IC50 fell in the range of 0.5 to 100 nM.
For the compound `CCC(O)C(C)C1OC1CC(C)/C=C/C=C(\C)C1OC(=O)CC(O)CCC(C)(O)C(OC(N)=O)/C=C/C1C` (centres unmarked) [B44, (8E,12E,14E)-7-Carbamoyloxy-3,6,21-trihydroxy-6,10,12,16,20-pentamethyl-18,19-epoxytricosa-8,12,14-trien-11-olide], the IC50 is 0.5 to 100 nM.
Under `CCC(O)C(C)C1OC1CC(C)/C=C/C=C(\C)C1OC(=O)CC(OC(=O)c2ccccc2)CCC(C)(O)C(OC(C)=O)/C=C/C1C` (centres unmarked) [B30-2, (8E,12E,14E)-7-acetoxy-3-benzoloxy-6,21-dihydroxy-6,10,12,16,20-pentamethyl-18,19-epoxytricosa-8,12,14-trien-11-olide] stands 0.5 to 100 nM.
Regarding `CCCC(=O)OC1/C=C/C(C)C(/C(C)=C/C=C/C(C)CC2OC2C(C)C(O)CC)OC(=O)CC(O)CCC1(C)O` (centres unmarked) [B42], the IC50 was in the range of 0.5 to 100 nM.
For `CCC(O)C(C)C1OC1CC(C)/C=C/C=C(\C)C1OC(=O)CC(O)CCC(C)(O)C(OC(=O)NCCN2CCOCC2)/C=C/C1C` (centres unmarked) [B59, (8E,12E,14E)-3,6,21-Trihydroxy-6,10,12,16,20-pentamethyl-7-N-(2-(morpholin-4-yl)ethyl)carbamoyloxy-18,19-epoxytricosa-8,12,14-trien-11-olide], the 50% inhibitory concentration (IC50) lay within 0.5 to 100 nM.
Regarding `CCC(O)C(C)C1OC1CC(C)/C=C/C=C(\C)C1OC(=O)CC(O)CCC(C)(O)C(OC(=O)NCCN(C)C)/C=C/C1C` (centres unmarked) [B54, (8E,12E,14E)-7-(N-(2-Dimethylamino)ethyl)carbamoyloxy-3,6,21-trihydroxy-6,10,12,16,20-pentamethyl-18,19-epoxytricosa-8,12,14-trien-11-olide], the concentration for half-maximal inhibition (IC50) lay within 0.5 to 100 nM.
`CCC(O)C(C)C1OC1CC(C)/C=C/C=C(\C)C1OC(=O)CC(O)CCC(C)(O)C(OC(=O)NC)/C=C/C1C` (centres unmarked) [B45, (8E,12E,14E)-3,6,21-Trihydroxy-6,10,12,16,20-pentamethyl-7-N-methylcarbamoyloxy-18,19-epoxytricosa-8,12,14-trien-11-olide]: the 50% inhibitory concentration (IC50) fell in the range of 0.5 to 100 nM.
As to `CCC(OS(=O)(=O)c1ccc(C)cc1)C(C)C1OC1CC(C)/C=C/C=C(\C)C1OC(=O)CC(O)CCC(C)(O)C(OC(C)=O)/C=C/C1C` (centres unmarked) [B17, (8E,12E,14E)-7-Acetoxy-3,6-dihydroxy-21-(toluene-4-sulfonyloxy)-6,10,12,16,20-pentamethyl-18,19-epoxytricosa-8,12,14-trien-11-olide], the IC50 was 0.5 to 100 nM.
As for `CCC(O)C(C)C1OC1CC(C)/C=C/C=C(\C)C1OC(=O)CC(O)CCC(C)(O)C(OC(=O)CCl)/C=C/C1C` (centres unmarked) [B39, (8E,12E,14E)-7-Chloroacetoxy-3,6,21-trihydroxy-6,10,12,16,20-pentamethyl-18,19-epoxytricosa-8,12,14-trien-11-olide], the IC50 fell in the range of 0.5 to 100 nM.
With `CC/C(=N\OC)C(C)C1OC1CC(C)/C=C/C=C(\C)C1OC(=O)CC(O)CCC(C)(O)C(OC(C)=O)/C=C/C1C` (centres unmarked) [B74, (8E,12E,14E)-7-Acetoxy-3,6-dihydroxy-21-methoxyimino-6,10,12,16,20-pentamethyl-18,19-epoxytricosa-8,12,14-trien-11-olide] the figure was 0.5 to 100 nM; with `CCC(O)C(C)C1OC1CC(C)/C=C/C=C(\C)C1OC(=O)CC(O)CCC(C)(OC)C(OC(C)=O)/C=C/C1C` (centres unmarked) [B8-5, (8E,12E,14E)-7-acetoxy-3,21-dihydroxy-6-methoxy-6,10,12,16,20-pentamethyl-18,19-epoxytricosa-8,12,14-trien-11-olide], 0.5 to 100 nM; with `CCC(OC(N)=O)C(C)C1OC1CC(C)/C=C/C=C(\C)C1OC(=O)CC(O)CCC(C)(O)C(OC(C)=O)/C=C/C1C` (centres unmarked) [B35-2, (8E,12E,14E)-7-acetoxy-21-carbamoyloxy-3,6-dihydroxy-6,10,12,16,20-pentamethyl-18,19-epoxytricosa-8,12,14-trien-11-olide], 0.5 to 100 nM.
Under `CCC(O)C(C)C1OC1CC(C)/C=C/C=C(\C)C1OC(=O)CC(O)CCC(C)(O)C(OC(=O)NC2CC(C)(C)N(C)C(C)(C)C2)/C=C/C1C` (centres unmarked) [B82, (8E,12E,14E)-3,6,21-Trihydroxy-6,10,12,16,20-pentamethyl-7-N-(1,2,2,6,6-pentamethylpiperidin-4-yl)carbamoyloxy-18,19-epoxytricosa-8,12,14-trien-11-olide] stands 0.5 to 100 nM; under `CCC(OC(C)=O)C(C)C(O)C(Cl)CC(C)/C=C/C=C(\C)C1OC(=O)CC(O)CCC(C)(O)C(OC(C)=O)/C=C/C1C` (centres unmarked) [B21-2, (8E,12E,14E)-7,21-diacetoxy-18-chloro-3,6,19-trihydroxy-6,10,12,16,20-pentamethyltricosa-8,12,14-trien-11-olide], 0.5 to 100 nM.
Turning to `CCC(O)C(C)C1OC1CC(C)/C=C/C=C(\C)C1OC(=O)CC(O)CCC(C)(O)C(OC(=O)N2CCCN(C)CC2)/C=C/C1C` (centres unmarked) [B62, (8E,12E,14E)-3,6,21-Trihydroxy-6,10,12,16,20-pentamethyl-7-((4-methylhomopiperazin-1-yl)carbonyl)oxy-18,19-epoxytricosa-8,12,14-trien-11-olide], the IC50 fell in the range of 0.5 to 100 nM.
With `CCC(F)C(C)C1OC1CC(C)/C=C/C=C(\C)C1OC(=O)CC(O)CCC(C)(O)C(OC(C)=O)/C=C/C1C` (centres unmarked) [B18-1, (8E,12E,14E)-7-Acetoxy-21-fluoro-3,6-dihydroxy-6,10,12,16,20-pentamethyl-18,19-epoxytricosa-8,12,14-trien-11-olide], the IC50 fell in the range of 0.5 to 100 nM.
For the compound `CCC(O)C(C)C1OC1CC(C)/C=C/C=C(\C)C1OC(=O)CC(O)CCC(C)(O)C(OC(=O)N2CCC(N3CCCCC3)CC2)/C=C/C1C` (centres unmarked) [B77], the concentration for half-maximal inhibition (IC50) is 0.5 to 100 nM.
For the compound `CCC(O)C(C)C1OC1CC(C)/C=C/C=C(\C)C1OC(=O)CC(O)CCC(C)(O)C(OC(=O)N2CCN(CCO)CC2)/C=C/C1C` (centres unmarked) [B66, (8E,12E,14E)-3,6,21-Trihydroxy-6,10,12,16,20-pentamethyl-7-((4-(2-hydroxyethyl)piperazin-1-yl)carbonyl)oxy-18,19-epoxytricosa-8,12,14-trien-11-olide], the IC50 was in the range of 0.5 to 100 nM.
